Experimental data taken from publication PMC6105598, “Targeting protein-protein interactions for therapeutic discovery via FRET-based high-throughput screening in living cells” (Scientific Reports, 2018).
Read-outs that look alike come from different tables or passages of the source.

What was measured:
[1] = molecular target: SERCA2a-PLB complex (GFP-SERCA2a / RFP-PLB in HEK293 cells) (Homo sapiens, UniProt P16615+P26678, C36A/C41F/C46A); assay: SERCA2a-PLB TR-FRET (fluorescence lifetime) biosensor assay in living cells; format: cell-based; design: expressed in transfected cells; host or cells: HEK293; details: for ΔFLT: compound incubation for 20 min, uncertainty (1 S.D.) 11 ps; for direction of FRET change of the SERCA2a-PLB biosensor: concentration-response 0.01-100 µM
SERCA2a-PLB complex (GFP-SERCA2a / RFP-PLB in HEK293 cells), sequence (P16615 1-997 isoform P16615-2, stated change not applied): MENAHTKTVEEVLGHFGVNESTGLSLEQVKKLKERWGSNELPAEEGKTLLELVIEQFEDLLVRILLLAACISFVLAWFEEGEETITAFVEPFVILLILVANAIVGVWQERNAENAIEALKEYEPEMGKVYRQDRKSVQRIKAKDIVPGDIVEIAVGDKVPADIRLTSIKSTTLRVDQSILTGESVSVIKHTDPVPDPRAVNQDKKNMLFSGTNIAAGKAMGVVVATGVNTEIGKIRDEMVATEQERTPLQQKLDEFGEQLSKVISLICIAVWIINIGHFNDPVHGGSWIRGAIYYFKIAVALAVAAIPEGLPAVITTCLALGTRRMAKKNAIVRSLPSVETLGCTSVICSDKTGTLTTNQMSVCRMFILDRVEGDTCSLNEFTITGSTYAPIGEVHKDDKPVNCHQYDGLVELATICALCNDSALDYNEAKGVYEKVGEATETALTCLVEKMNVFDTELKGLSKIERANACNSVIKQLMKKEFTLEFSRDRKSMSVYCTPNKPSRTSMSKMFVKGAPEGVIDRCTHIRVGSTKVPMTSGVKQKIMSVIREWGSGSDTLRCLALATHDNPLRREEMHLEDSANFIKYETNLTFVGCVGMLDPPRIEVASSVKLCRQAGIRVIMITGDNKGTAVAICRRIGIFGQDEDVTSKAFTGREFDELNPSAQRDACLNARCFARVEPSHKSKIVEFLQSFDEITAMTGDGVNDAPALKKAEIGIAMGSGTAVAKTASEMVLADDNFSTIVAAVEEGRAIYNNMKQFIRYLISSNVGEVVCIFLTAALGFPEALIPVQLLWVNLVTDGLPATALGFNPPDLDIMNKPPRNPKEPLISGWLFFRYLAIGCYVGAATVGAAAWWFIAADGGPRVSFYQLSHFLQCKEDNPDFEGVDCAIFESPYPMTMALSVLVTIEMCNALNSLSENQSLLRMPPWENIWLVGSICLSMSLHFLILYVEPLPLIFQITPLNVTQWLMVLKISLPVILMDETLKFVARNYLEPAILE
SERCA2a-PLB complex (GFP-SERCA2a / RFP-PLB in HEK293 cells), sequence (P26678 whole entry C36A/C41F/C46A): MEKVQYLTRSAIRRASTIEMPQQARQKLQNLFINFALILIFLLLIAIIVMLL

[2] = molecular target: T1, cardiac SR (SERCA2a + PLB) (Sus scrofa, UniProt P11607); assay: Ca-ATPase activity of cardiac SR (CSR), NADH-linked enzyme-coupled assay; format: biochemical, pig; details: for Vmax @ 30 µM / ΔVmax @ 30 µM: 30 µM compound; for ΔVmax @ 30 µM: relative to DMSO control
T1 construct: Cardiac SR membrane vesicles were isolated from ventricular myocardium obtained from fresh pig hearts; from tissue; host or cells: pig ventricular myocardium, SR membrane vesicles
T1 sequence (P11607 1-997 isoform P11607-2): as the sequence (P16615 1-997 isoform P16615-2, stated change not applied) above, with R371K, N403K, S538P, L570M, H576N, D667E, A713S, S865T, I889V, V963L counted along it
T1 sequence (P61013 whole entry partner): as the sequence (P26678 whole entry C36A/C41F/C46A) above, with E2D, K27N, A36C, F41C, A46C counted along it
Protocol: To characterize the relationship between the structural readout (FRET) and the functional effects, in vitro Ca-ATPase assays were performed on cardiac SR (which contains both SERCA2a and PLB). […] To further examine the functional effects of Hit compounds, Ca-ATPase assays were performed on both skeletal SR (SERCA1a only) and cardiac SR (SERCA2a + PLB) at a series of Ca concentrations ranging from pCa 5 to 8.
(§1) Skeletal muscle SR membrane vesicles were isolated from longissimus dorsi obtained from New Zealand white rabbits, as previously described. Cardiac SR membrane vesicles were isolated from ventricular myocardium obtained from fresh pig hearts. All experimental protocols were reviewed and approved by University of Minnesota’s Institutional Animal Care and Use Committee, an Association for Assessment and Accreditation of Laboratory Animal Care institution.
(§2) An enzyme-coupled, NADH-linked ATPase assay was used to measure SERCA ATPase activity in 96-well microplates. Each well contained 0.8 μg (skeletal) or 2 μg (cardiac) of SR vesicles adjusted for the different SERCA contents of skeletal and cardiac SR, 50 mM MOPS (pH 7.0), 100 mM KCl, 5 mM MgCl2, 1 mM EGTA, 0.2 mM NADH, 1 mM phosphoenol pyruvate, 10 IU/mL of pyruvate kinase, 10 IU/mL of lactate dehydrogenase, 3.5 μg/mL of the Ca ionophore A23187, and CaCl2 added to set free [Ca] to the desired values. The assay was started upon the addition of ATP at a final concentration of 5 mM and read in a SpectraMax Plus microplate spectrophotometer rom Molecular Devices (Sunnyvale, CA).

[3] = molecular target: T2, skeletal SR (SERCA1a only) (Oryctolagus cuniculus, UniProt P04191); assay: Ca-ATPase activity of skeletal SR (SSR), NADH-linked enzyme-coupled assay; format: biochemical, rabbit; details: for EC50 / Vmax @ 30 µM / ΔVmax @ 30 µM / percent change in Vmax vs DMSO control at 30 µM: SSR; for Vmax @ 30 µM / ΔVmax @ 30 µM / percent change in Vmax vs DMSO control at 30 µM: 30 µM compound; for ΔVmax @ 30 µM / percent change in Vmax vs DMSO control at 30 µM: relative to DMSO control; for percent change in Vmax vs DMSO control at 30 µM: read-out: ΔVmax @ 30 µM
T2 construct: Skeletal muscle SR membrane vesicles were isolated from longissimus dorsi obtained from New Zealand white rabbits; from tissue; host or cells: rabbit longissimus dorsi skeletal muscle, SR membrane vesicles
T2 sequence (P04191 1-994 isoform P04191-2): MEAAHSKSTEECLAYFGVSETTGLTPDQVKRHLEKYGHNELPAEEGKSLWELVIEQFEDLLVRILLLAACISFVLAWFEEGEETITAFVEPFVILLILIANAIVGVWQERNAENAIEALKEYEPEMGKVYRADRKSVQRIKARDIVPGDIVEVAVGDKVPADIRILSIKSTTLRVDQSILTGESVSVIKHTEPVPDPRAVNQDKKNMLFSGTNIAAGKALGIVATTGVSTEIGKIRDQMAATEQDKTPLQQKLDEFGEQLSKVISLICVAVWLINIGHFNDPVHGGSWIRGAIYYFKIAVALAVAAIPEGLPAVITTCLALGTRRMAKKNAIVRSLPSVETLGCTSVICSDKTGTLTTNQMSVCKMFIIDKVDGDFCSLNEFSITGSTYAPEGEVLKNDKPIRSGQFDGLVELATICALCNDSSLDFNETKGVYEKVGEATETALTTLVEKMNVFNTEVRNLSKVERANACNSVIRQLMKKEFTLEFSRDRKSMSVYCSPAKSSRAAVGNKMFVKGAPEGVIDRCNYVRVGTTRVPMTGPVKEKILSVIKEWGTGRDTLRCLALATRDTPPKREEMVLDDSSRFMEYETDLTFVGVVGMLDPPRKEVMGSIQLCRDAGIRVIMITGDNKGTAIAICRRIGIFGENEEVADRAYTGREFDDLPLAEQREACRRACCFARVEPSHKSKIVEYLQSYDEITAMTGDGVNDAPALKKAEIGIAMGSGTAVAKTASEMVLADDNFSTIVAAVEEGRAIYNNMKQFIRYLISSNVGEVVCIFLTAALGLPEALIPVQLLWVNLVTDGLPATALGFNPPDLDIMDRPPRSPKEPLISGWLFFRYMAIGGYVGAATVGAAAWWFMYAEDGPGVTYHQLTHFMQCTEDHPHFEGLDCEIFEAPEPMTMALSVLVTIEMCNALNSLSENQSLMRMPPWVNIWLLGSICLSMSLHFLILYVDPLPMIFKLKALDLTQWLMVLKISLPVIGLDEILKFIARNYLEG
Protocol: To further examine the functional effects of Hit compounds, Ca-ATPase assays were performed on both skeletal SR (SERCA1a only) and cardiac SR (SERCA2a + PLB) at a series of Ca concentrations ranging from pCa 5 to 8.
as §1, §2

[4] = molecular target: GFP-SERCA2a (eGFP fused to the N-terminus of human cardiac sarcoplasmic reticulum Ca-ATPase SERCA2a) (human) (UniProt P16615); assay: FRET or BRET; time-resolved FRET (donor fluorescence lifetime) in saponin-permeabilized HEK293 cells, low Ca (100 nM); also tested with 100 nM thapsigargin
GFP-SERCA2a (eGFP fused to the N-terminus of human cardiac sarcoplasmic reticulum Ca-ATPase SERCA2a) (human), sequence (P16615 other isoform, or with tags, fused parts or gaps): as the sequence (P16615 1-997 isoform P16615-2, stated change not applied) above

[5] = molecular target: GFP-SERCA2a (eGFP fused to the N-terminus of human cardiac sarcoplasmic reticulum Ca-ATPase SERCA2a) (human) (UniProt P16615); assay: FRET or BRET; time-resolved FRET (donor fluorescence lifetime, plate reader) in live HEK293 cells co-expressing GFP-SERCA2a (donor) and increasing amounts of RFP-PLB (acceptor); value at saturating acceptor
[6] = molecular target: GFP-SERCA2a (eGFP fused to the N-terminus of human cardiac sarcoplasmic reticulum Ca-ATPase SERCA2a) (human) (UniProt P16615); assay: FRET or BRET; time-resolved FRET (donor fluorescence lifetime) in saponin-permeabilized HEK293 cells, high Ca (10 µM); also tested with 100 nM thapsigargin, which prevents the Ca-dependent decrease in FRET
[7] = concentration-response 0.01-100 µM compound, live HEK293 cells

RFP-PLB (tagRFP fused to the N-terminus of a monomeric mutant of human phospholamban), sequence (P26678 whole entry C36A/C46A, change not shown, the tested form may be a part): as the sequence (P26678 whole entry C36A/C41F/C46A) above, with F41C counted along it

Molecule	ΔFLT ([1]; final concentration 10 µM)	ΔFLT ([1]; final concentration 100 µM)	EC50 [1, 7]	Vmax @ 30 µM ([2]; CSR)	ΔVmax @ 30 µM ([2]; CSR)	EC50 ([2]; CSR, read-out: EC50 Vmax)	EC50 [3]	Vmax @ 30 µM [3]	ΔVmax @ 30 µM [3]	percent change in Vmax vs DMSO control at 30 µM [3]	also measured
Oc1ccc(/C=C/c2ccc(/C=C/c3ccc(O)cc3)c(Br)c2)cc1 [K114]	-16 ps	-102 ps	41.3 µM	0.11 i.u.	-83.7%	6.7 µM	3.53 µM	0.32 i.u.	-87.9%		
Cc1[nH]c(=O)c(C#N)cc1-c1ccc2nccn2c1 [Olprinone]	36 ps	254 ps	> 100 µM	0.68 i.u.	-0.1%			2.70 i.u.		3%	
O=C(Nc1cccnc1)N1CCC(Cc2cccc(Oc3ccc(C(F)(F)F)cn3)c2)CC1 [PF3845]	30 ps	38 ps		0.48 i.u.	-28.3%			2.61 i.u.		-0.2%	EC50 [1]: 3.2 µM
CC1=C(/C=C/C(C)=C/C=C/C(C)=C/C(=O)O)C(C)(C)CCC1 [Retinoic Acid]	27 ps	-31 ps	65.5 µM	0.42 i.u.	-37.8%	11.2 µM		2.34 i.u.		-10.6%	
O=C(c1cc(O)c(O)c([N+](=O)[O-])c1)c1ccccc1F [Ro 41-0960]	-26 ps	-152 ps	22.5 µM	0.53 i.u.	-20.9%		9.78 µM	1.44 i.u.	-45.1%		direction of FRET change of the SERCA2a-PLB biosensor [1]: increase in FRET; EC50 ([2]; cardiac SR (SERCA2a + PLB), read-out: EC50 of the increase in Ca affinity (pKCa)): 23 µM; increase of Ca-ATPase activity at pCa 6.4 ([2]; cardiac SR, pCa 6.4, 24 µM compound): 44%; Ca affinity (pKCa) in cardiac SR with compound ([2]; increased from 6.05 (control), concentration-dependent, up to 64 µM): 6.45; effect on Ca affinity in skeletal SR ([3]; even at the highest compound concentrations): no effect
C=C(C)[C@H]1Cc2c(ccc3c2O[C@@H]2COc4cc(OC)c(OC)cc4[C@@H]2C3=O)O1 [Rotenone]				0.53 i.u.	-22.0%			2.64 i.u.		0.7%	
CN=c1nc(-c2ccccc2)n(-c2ccccc2)s1 [SCH 202676]	36 ps	35 ps	1.8 µM	0.22 i.u.	-68.2%	1.4 µM	0.9 µM	0.07 i.u.	-97.3%		direction of FRET change of the SERCA2a-PLB biosensor [1]: decrease in FRET; decrease of Vmax ([2]; cardiac SR): 68%; decrease of Vmax ([3]; skeletal SR): 97%
Brc1c(Br)c(Br)c2n[nH]nc2c1Br [TBB]	31 ps	63 ps	73.2 µM	0.49 i.u.	-27.2%			2.66 i.u.	1.6%		
NC(=O)N1C(=O)/C(=C(\O)c2cccs2)c2cc(Cl)ccc21 [Tenidap]	8 ps	-68 ps		0.66 i.u.	-1.7%			2.66 i.u.		1.8%	EC50 [1]: > 100 µM
RFP-PLB (tagRFP fused to the N-terminus of a monomeric mutant of human phospholamban) (from UniProt P26678 1-52) (natural protein)											FRET efficiency E [4]: 0.14; maximum FRET efficiency E [5]: 0.103; FRET efficiency E [6]: 0.11
